# ChEMBL document CHEMBL3885861, “Open TG-GATES”
# Species on record: Rattus norvegicus
# Experiment: Open TG-GATES - Regimen: Single
# Format: toxicity, organism-based, Sprague-Dawley
# Parameters: regimen Single, gender Male, age 6 weeks
# Conditions: in vivo, po, 0 mg/kg, route gavage, dose level Control; for APTT / Bas / Eos / Fbg / Hb / Ht / Lym / MCH / MCHC / MCV / Mono / Neu / PT / Plat / RBC / Ret / WBC: tissue Blood; for LIVER: tissue Liver; for A/G / ALP / ALT / AST / BUN / CRE / Ca / Cl / DBIL / GLC / IP / K / LDH / Na / PL / RALB / TBIL / TC / TG / TP / gamma-GTP: tissue Plasma
structure (smiles),measurement,setting,value
C=C(C)[C@H]1Cc2c(ccc3c2O[C@@H]2COc4cc(OC)c(OC)cc4[C@@H]2C3=O)O1 [ROTENONE],TERMINAL_BW,3 h,198.4 g
same,APTT,3 h,15 s
same,Bas,3 h,0%
same,Eos,3 h,1%
same,Fbg,3 h,207.8 mg/dL
same,Hb,3 h,12.6 g/dL
same,Ht,3 h,38.3%
same,Lym,3 h,76.8%
same,MCH,3 h,21 pg
same,MCHC,3 h,33%
same,MCV,3 h,63.7 fL
same,Mono,3 h,5%
same,Neu,3 h,17.6%
same,PT,3 h,12.1 s
same,Plat,3 h,131.6 x10_4/uL
same,RBC,3 h,601.6 x10_4/ul
same,Ret,3 h,9.8%
same,WBC,3 h,98.8 x10_2/uL
same,LIVER,3 h,9.4 g
same,A/G,3 h,2.3
same,ALP,3 h,1432.2 IU/L
same,ALT,3 h,35.8 IU/L
same,AST,3 h,70.6 IU/L
same,BUN,3 h,12.8 mg/dL
same,CRE,3 h,0.3 mg/dL
same,Ca,3 h,11 mg/dL
same,Cl,3 h,104.6 meq/L
same,DBIL,3 h,0.01 mg/dL
same,GLC,3 h,188.2 mg/dL
same,IP,3 h,8.3 mg/dL
same,K,3 h,4.4 meq/L
same,LDH,3 h,80.6 IU/L
same,Na,3 h,140.4 meq/L
same,PL,3 h,139.6 mg/dL
same,RALB,3 h,3.7 g/dL
same,TBIL,3 h,0.04 mg/dL
same,TC,3 h,82.8 mg/dL
same,TG,3 h,61.2 mg/dL
same,TP,3 h,5.3 g/dL
same,gamma-GTP,3 h,1 IU/L
same,TERMINAL_BW,6 h,197 g
same,APTT,6 h,15.9 s
same,Bas,6 h,0%
same,Eos,6 h,1%
same,Fbg,6 h,218 mg/dL
same,Hb,6 h,13.2 g/dL
same,Ht,6 h,40.3%
same,Lym,6 h,72.2%
same,MCH,6 h,21.2 pg
same,MCHC,6 h,32.8%
same,MCV,6 h,64.5 fL
same,Mono,6 h,9%
same,Neu,6 h,17.6%
same,PT,6 h,12.1 s
same,Plat,6 h,122.2 x10_4/uL
same,RBC,6 h,625.8 x10_4/ul
same,Ret,6 h,8.1%
same,WBC,6 h,92.8 x10_2/uL
same,LIVER,6 h,8.7 g
same,A/G,6 h,2.3
same,ALP,6 h,1181 IU/L
same,ALT,6 h,35.4 IU/L
same,AST,6 h,67 IU/L
same,BUN,6 h,9.6 mg/dL
same,CRE,6 h,0.4 mg/dL
same,Ca,6 h,10.9 mg/dL
same,Cl,6 h,103.4 meq/L
same,DBIL,6 h,0.01 mg/dL
same,GLC,6 h,181.8 mg/dL
same,IP,6 h,9 mg/dL
same,K,6 h,4.4 meq/L
same,LDH,6 h,87 IU/L
same,Na,6 h,139.2 meq/L
same,PL,6 h,139.8 mg/dL
same,RALB,6 h,3.8 g/dL
same,TBIL,6 h,0.048 mg/dL
same,TC,6 h,81.8 mg/dL
same,TG,6 h,82.8 mg/dL
same,TP,6 h,5.4 g/dL
same,gamma-GTP,6 h,0.4 IU/L
same,TERMINAL_BW,9 h,190.2 g
same,APTT,9 h,16 s
same,Bas,9 h,0%
same,Eos,9 h,1%
same,Fbg,9 h,209 mg/dL
same,Hb,9 h,13 g/dL
same,Ht,9 h,39.4%
same,Lym,9 h,74.4%
same,MCH,9 h,21.4 pg
same,MCHC,9 h,32.9%
same,MCV,9 h,64.8 fL
same,Mono,9 h,8.4%
same,Neu,9 h,16.6%
same,PT,9 h,12.2 s
same,Plat,9 h,123.2 x10_4/uL
same,RBC,9 h,609 x10_4/ul
same,Ret,9 h,9.2%
same,WBC,9 h,95 x10_2/uL
same,LIVER,9 h,8 g
same,A/G,9 h,2.5
same,ALP,9 h,1388.2 IU/L
same,ALT,9 h,33.6 IU/L
same,AST,9 h,64.4 IU/L
same,BUN,9 h,9.8 mg/dL
same,CRE,9 h,0.3 mg/dL
same,Ca,9 h,11 mg/dL
same,Cl,9 h,104.2 meq/L
same,DBIL,9 h,0.01 mg/dL
same,GLC,9 h,182.2 mg/dL
same,IP,9 h,10.2 mg/dL
same,K,9 h,4.1 meq/L
same,LDH,9 h,74.6 IU/L
same,Na,9 h,140 meq/L
same,PL,9 h,134.2 mg/dL
same,RALB,9 h,3.8 g/dL
same,TBIL,9 h,0.05 mg/dL
same,TC,9 h,81.4 mg/dL
same,TG,9 h,42.2 mg/dL
same,TP,9 h,5.3 g/dL
same,gamma-GTP,9 h,1 IU/L
same,TERMINAL_BW,24 h,212.6 g
same,APTT,24 h,15.6 s
same,Bas,24 h,0%
same,Eos,24 h,1%
same,Fbg,24 h,220.6 mg/dL
same,Hb,24 h,12.6 g/dL
same,Ht,24 h,38.4%
same,Lym,24 h,69%
same,MCH,24 h,21.6 pg
same,MCHC,24 h,32.8%
same,MCV,24 h,65.9 fL
same,Mono,24 h,9.8%
same,Neu,24 h,20%
same,PT,24 h,12 s
same,Plat,24 h,131.2 x10_4/uL
same,RBC,24 h,582.6 x10_4/ul
same,Ret,24 h,8.3%
same,WBC,24 h,108.8 x10_2/uL
same,LIVER,24 h,10.1 g
same,A/G,24 h,2.5
same,ALP,24 h,1476.8 IU/L
same,ALT,24 h,48 IU/L
same,AST,24 h,75.8 IU/L
same,BUN,24 h,18 mg/dL
same,CRE,24 h,0.4 mg/dL
same,Ca,24 h,11.5 mg/dL
same,Cl,24 h,103.8 meq/L
same,DBIL,24 h,0.014 mg/dL
same,GLC,24 h,181.6 mg/dL
same,IP,24 h,7.2 mg/dL
same,K,24 h,4.8 meq/L
same,LDH,24 h,93.8 IU/L
same,Na,24 h,139 meq/L
same,PL,24 h,148.4 mg/dL
same,RALB,24 h,3.9 g/dL
same,TBIL,24 h,0.042 mg/dL
same,TC,24 h,81.2 mg/dL
same,TG,24 h,123.6 mg/dL
same,TP,24 h,5.5 g/dL
same,gamma-GTP,24 h,0.6 IU/L
